Measurements: paper PMC11536976 (RSC Advances, 2024)
Read-outs that look alike come from different tables or passages of the source.

Experiments:
Type in all cases: cell-based, human
A549 cells [1] = assay: MTT cytotoxicity assay, A549; conditions: for IC50: read-out: IC50 A549; for SI A549: selectivity index = IC50 in MRC-5 / IC50 in A549
SW480 cells = assay: MTT cytotoxicity assay, SW480; conditions: for IC50: Homo sapiens, SW480, 72 h, read-out: IC50 SW480; for SI SW480: selectivity index = IC50 in MRC-5 / IC50 in SW480
A549 cells [2] = assay: Cell cycle analysis by flow cytometry; conditions: 24 h; for cell population in S phase: control 18.89%; for cell population in G0/G1 phase: control 67.87%
A549 cells [3] = assay: Apoptosis assay, Annexin V-FITC/PI flow cytometry; conditions: 24 h; for early apoptotic cells (Q3, annexin+/PI-): control 1.8%; for late apoptotic cells (Q2, annexin+/PI+): control 2.4%

N.N.[Cl][Pt][Cl] [Cisplatin, reference compound]
IC50 (A549 cells [1]; MTT, 72 h, mean ± SD of 3–4 independent replicates): 5.77 ± 1.6 µM

CCCCNC(=O)c1ccc2nc(-c3cc(OC)c(OC)c(OC)c3)[nH]c2c1 [Compound 5a, N-Butyl-2-(3,4,5-trimethoxyphenyl)-1H-benzo[d]imidazole-6-carboxamide]
IC50 (SW480 cells): 46.1 ± 9.23 µM | IC50 (A549 cells [1]; Homo sapiens, A549, 72 h): 24.8 ± 5.21 µM

COc1cc(-c2nc3ccc(C(=O)NCC(C)C)cc3[nH]2)cc(OC)c1OC [Compound 5b, N-Isobutyl-2-(3,4,5-trimethoxyphenyl)-1H-benzo[d]imidazole-6-carboxamide]
IC50 (SW480 cells): 18.8 ± 3.25 µM | IC50 (A549 cells [1]; Homo sapiens, A549, 72 h): 0.82 ± 0.2 µM

COc1cc(-c2nc3ccc(C(=O)NCc4ccccc4)cc3[nH]2)cc(OC)c1OC [Compound 5c, N-Benzyl-2-(3,4,5-trimethoxyphenyl)-1H-benzo[d]imidazole-6-carboxamide]
IC50 (SW480 cells): 34.8 ± 5.37 µM | IC50 (A549 cells [1]; Homo sapiens, A549, 72 h): 16.3 ± 5.73 µM

COc1cc(-c2nc3ccc(C(=O)NCCc4ccccc4)cc3[nH]2)cc(OC)c1OC [Compound 5d, N-Phenethyl-2-(3,4,5-trimethoxyphenyl)-1H-benzo[d]imidazole-6-carboxamide]
IC50 (SW480 cells): 18.2 ± 2.69 µM | IC50 (A549 cells [1]; Homo sapiens, A549, 72 h): 0.66 ± 0.13 µM

COc1cc(-c2nc3ccc(C(=O)Nc4ccccc4)cc3[nH]2)cc(OC)c1OC [Compound 5e, N-Phenyl-2-(3,4,5-trimethoxyphenyl)-1H-benzo[d]imidazole-6-carboxamide]
IC50 (SW480 cells): 5.45 ± 0.67 µM | SI SW480 (SW480 cells): 2.1 | IC50 (A549 cells [1]; Homo sapiens, A549, 72 h): 0.23 ± 0.05 µM | SI A549 (A549 cells [1]): 50.2

COc1cc(-c2nc3ccc(C(=O)Nc4ccccc4F)cc3[nH]2)cc(OC)c1OC [Compound 5f, N-(2-Fluorophenyl)-2-(3,4,5-trimethoxyphenyl)-1H-benzo[d]imidazole-6-carboxamide]
IC50 (SW480 cells): 6.38 ± 1.95 µM | SI SW480 (SW480 cells): 1.7 | IC50 (A549 cells [1]; Homo sapiens, A549, 72 h): 0.67 ± 0.15 µM | SI A549 (A549 cells [1]): 15.8

COc1cc(-c2nc3ccc(C(=O)Nc4ccccc4Cl)cc3[nH]2)cc(OC)c1OC [Compound 5g, N-(2-Chlorophenyl)-2-(3,4,5-trimethoxyphenyl)-1H-benzo[d]imidazole-6-carboxamide]
IC50 (SW480 cells): 49.1 ± 2.84 µM | IC50 (A549 cells [1]; Homo sapiens, A549, 72 h): 17.3 ± 3.5 µM

COc1cc(-c2nc3ccc(C(=O)Nc4cccc(Cl)c4)cc3[nH]2)cc(OC)c1OC [Compound 5h, N-(3-Chlorophenyl)-2-(3,4,5-trimethoxyphenyl)-1H-benzo[d]imidazole-6-carboxamide]
IC50 (SW480 cells): 52.7 ± 2.96 µM | IC50 (A549 cells [1]; Homo sapiens, A549, 72 h): 27.5 ± 6.78 µM

COc1cc(-c2nc3ccc(C(=O)Nc4ccc([N+](=O)[O-])cc4Cl)cc3[nH]2)cc(OC)c1OC [Compound 5i, N-(2-Chloro-4-nitrophenyl)-2-(3,4,5-trimethoxyphenyl)-1H-benzo[d]imidazole-6-carboxamide]
IC50 (SW480 cells): 20.2 ± 7.21 µM | IC50 (A549 cells [1]; Homo sapiens, A549, 72 h): 5.78 ± 4.85 µM

COc1cc(-c2nc3ccc(C(=O)Nc4ccc(Br)cc4)cc3[nH]2)cc(OC)c1OC [Compound 5j, N-(4-Bromophenyl)-2-(3,4,5-trimethoxyphenyl)-1H-benzo[d]imidazole-6-carboxamide]
IC50 (SW480 cells): 15.2 ± 2.58 µM | IC50 (A549 cells [1]; Homo sapiens, A549, 72 h): 13.1 ± 1.27 µM

COc1cc(-c2nc3ccc(C(=O)Nc4cccc([N+](=O)[O-])c4)cc3[nH]2)cc(OC)c1OC [Compound 5k, N-(3-Nitrophenyl)-2-(3,4,5-trimethoxyphenyl)-1H-benzo[d]imidazole-6-carboxamide]
IC50 (SW480 cells): 16.8 ± 1.41 µM | IC50 (A549 cells [1]; Homo sapiens, A549, 72 h): 14.4 ± 3.53 µM

COc1cc(-c2nc3ccc(C(=O)Nc4ccccc4C)cc3[nH]2)cc(OC)c1OC [Compound 5l, N-(o-Tolyl)-2-(3,4,5-trimethoxyphenyl)-1H-benzo[d]imidazole-6-carboxamide]
IC50 (SW480 cells): 9.31 ± 0.21 µM | IC50 (A549 cells [1]; Homo sapiens, A549, 72 h): 0.92 ± 0.39 µM

COc1cc(-c2nc3ccc(C(=O)Nc4ccc(C)cc4)cc3[nH]2)cc(OC)c1OC [Compound 5m, N-(p-Tolyl)-2-(3,4,5-trimethoxyphenyl)-1H-benzo[d]imidazole-6-carboxamide]
IC50 (SW480 cells): 13 ± 1.2 µM | SI SW480 (SW480 cells): 1.2 | IC50 (A549 cells [1]; Homo sapiens, A549, 72 h): 0.52 ± 0.12 µM | SI A549 (A549 cells [1]): 28.9

COc1cc(-c2nc3ccc(C(=O)Nc4ccc(C)cc4C)cc3[nH]2)cc(OC)c1OC [Compound 5n, N-(2,4-Dimethylphenyl)-2-(3,4,5-trimethoxyphenyl)-1H-benzo[d]imidazole-6-carboxamide]
IC50 (SW480 cells): 14.8 ± 1.63 µM | IC50 (A549 cells [1]; Homo sapiens, A549, 72 h): 1.38 ± 0.23 µM

COc1ccc(NC(=O)c2ccc3nc(-c4cc(OC)c(OC)c(OC)c4)[nH]c3c2)c(OC)c1 [Compound 5o, N-(2,4-Dimethoxyphenyl)-2-(3,4,5-trimethoxyphenyl)-1H-benzo[d]imidazole-6-carboxamide]
IC50 (SW480 cells): 3.68 ± 0.59 µM | fold stronger cytotoxic activity than cisplatin (SW480 cells; SW480 cells): 4.1 fold | fold stronger cytotoxic activity than etoposide (SW480 cells; SW480 cells): 4.5 fold | SI SW480 (SW480 cells): 32.4 | cell population in S phase (A549 cells [2]; A549, 0.15 μM): 43.58% | cell population in G0/G1 phase (A549 cells [2]; A549, 0.15 μM): 46.44% | cell population in G2/M phase (A549 cells [2]; A549, 0.30 μM, control 13.24%): 4.53% | cell population in S phase (A549 cells [2]; A549, 0.30 μM): 60.31% | cell population in G0/G1 phase (A549 cells [2]; A549, 0.30 μM): 35.16% | total apoptosis rate (Q2 + Q3) (A549 cells [3]; A549, 0.15 μM): 15.2% | early apoptotic cells (Q3, annexin+/PI-) (A549 cells [3]; A549, 0.15 μM): 9.8% | late apoptotic cells (Q2, annexin+/PI+) (A549 cells [3]; A549, 0.15 μM): 5.4% | total apoptosis rate (Q2 + Q3) (A549 cells [3]; A549, 0.30 μM): 74.3% | early apoptotic cells (Q3, annexin+/PI-) (A549 cells [3]; A549, 0.30 μM): 34.4% | late apoptotic cells (Q2, annexin+/PI+) (A549 cells [3]; A549, 0.30 μM): 39.9% | fold higher cytotoxic activity than cisplatin (A549 cells [1]; A549 cells): 38.5 fold | fold higher cytotoxic activity than doxorubicin (A549 cells [1]; A549 cells): 3.1 fold | fold higher cytotoxic activity than etoposide (A549 cells [1]; A549 cells): 62.9 fold | IC50 (A549 cells [1]; Homo sapiens, A549, 72 h): 0.15 ± 0.01 µM | SI A549 (A549 cells [1]): 794.6

COc1cccc2c1C(=O)c1c(O)c3c(c(O)c1C2=O)C[C@@](O)(C(=O)CO)C[C@@H]3O[C@H]1C[C@H](N)[C@H](O)[C@H](C)O1 [Doxorubicin, reference compound]
IC50 (SW480 cells): 0.59 ± 0.07 µM | SI SW480 (SW480 cells): 0.7 | IC50 (A549 cells [1]; Homo sapiens, A549, 72 h): 0.46 ± 0.02 µM | SI A549 (A549 cells [1]): 0.8

COc1cc([C@@H]2c3cc4c(cc3[C@@H](O[C@@H]3O[C@@H]5CO[C@@H](C)O[C@H]5[C@H](O)[C@H]3O)[C@H]3COC(=O)[C@H]23)OCO4)cc(OC)c1O [Etoposide, reference compound]
IC50 (SW480 cells): 16.6 ± 2.3 µM | IC50 (A549 cells [1]; Homo sapiens, A549, 72 h): 9.44 ± 1.98 µM
